Results reported in patent US20020061836A1, “Methods for altering SXR activation using peptide mimetic HIV protease inhibitor SXR ligands” (priority 2000, published 2002).
Where two headings read alike, the source gives them in different places.

Key:
[1] = target: T1, human SXR ligand binding domain (Homo sapiens, UniProt O75469); experiment: Gal-L-SXR (Gal-SXR) Gal4 reporter transient transfection assay in CV-1 cells; settings: CV-1 cells; 10 μM compound (LG268 100 nM); about 24 h
T1 sequence (O75469 107-434 limits assumed): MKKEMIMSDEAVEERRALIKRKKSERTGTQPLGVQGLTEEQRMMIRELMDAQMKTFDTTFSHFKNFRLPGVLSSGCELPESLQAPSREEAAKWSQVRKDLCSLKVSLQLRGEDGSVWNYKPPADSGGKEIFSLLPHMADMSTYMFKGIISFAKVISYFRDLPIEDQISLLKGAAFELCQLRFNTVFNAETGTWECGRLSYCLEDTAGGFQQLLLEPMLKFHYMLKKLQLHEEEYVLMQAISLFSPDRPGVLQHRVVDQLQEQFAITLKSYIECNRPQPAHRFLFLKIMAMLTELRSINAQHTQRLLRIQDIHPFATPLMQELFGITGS
Source text: Use of a standard model heterologous cell system to reconstitute SXR agonist and antagonist responsiveness allows SXR activity to be monitored in the absence of the metabolic events which may obscure the process being tested. Any suitable heterologous cell system may be used to test the activation of potential or known SXR nuclear receptor ligands, as long as the cells are capable of being transiently transfected with the appropriate DNA which expresses receptors, reporter genes, response elements, and the like. Cells which constitutively express one or more of the necessary genes may be used as well. Cell systems that are suitable for the transient expression of mammalian genes and which are amenable to maintenance in culture are well known to those skilled in the art. […] Suitable reporter gene constructs are well known to skilled workers in the fields of biochemistry and molecular biology. Activity of the reporter gene can be conveniently normalized to the internal control and the data plotted as fold activation relative to untreated cells.
(§1) The Gal4 reporter activity was normalized to the internal β-galactosidase control and the data plotted as fold activation relative to untreated cells. All transfections contained the Gal4 reporter and a β-galactosidase expression vector as an internal control.
(§2) Izbicka et al., Ann. Oncol.
Gal-PXR containing the ligand binding domain of mouse PXR (#AF031814) was obtained from Bruce Blumberg.
Transient Transffection Assays—CV-1 cells were grown and transfected as described.

human LXRα = target: T2, human LXRα (Homo sapiens, UniProt Q13133); experiment: Nuclear receptor specificity transfection assay; type: cell-based
T2 construct: expressed in transfected cells; host or cells: CV-1
T2 sequence (Q13133 1-447): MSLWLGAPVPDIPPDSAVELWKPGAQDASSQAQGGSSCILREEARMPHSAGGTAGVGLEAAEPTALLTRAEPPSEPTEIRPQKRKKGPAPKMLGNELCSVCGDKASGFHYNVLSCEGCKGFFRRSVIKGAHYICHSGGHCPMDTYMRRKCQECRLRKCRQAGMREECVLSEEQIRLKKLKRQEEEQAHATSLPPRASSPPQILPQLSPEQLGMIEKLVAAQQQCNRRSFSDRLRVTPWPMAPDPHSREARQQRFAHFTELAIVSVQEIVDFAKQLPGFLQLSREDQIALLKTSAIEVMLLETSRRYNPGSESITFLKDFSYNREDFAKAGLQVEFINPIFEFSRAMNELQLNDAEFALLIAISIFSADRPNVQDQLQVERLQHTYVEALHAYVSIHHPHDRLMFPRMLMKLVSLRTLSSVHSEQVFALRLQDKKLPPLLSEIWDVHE

mouse CARβ = target: T3, mouse CARβ (Mus musculus, UniProt O35627); experiment: Nuclear receptor specificity transfection assay / LXRE×3-TK-luc reporter with CARβ in CV-1 cells; type: cell-based
T3 sequence (O35627 1-358): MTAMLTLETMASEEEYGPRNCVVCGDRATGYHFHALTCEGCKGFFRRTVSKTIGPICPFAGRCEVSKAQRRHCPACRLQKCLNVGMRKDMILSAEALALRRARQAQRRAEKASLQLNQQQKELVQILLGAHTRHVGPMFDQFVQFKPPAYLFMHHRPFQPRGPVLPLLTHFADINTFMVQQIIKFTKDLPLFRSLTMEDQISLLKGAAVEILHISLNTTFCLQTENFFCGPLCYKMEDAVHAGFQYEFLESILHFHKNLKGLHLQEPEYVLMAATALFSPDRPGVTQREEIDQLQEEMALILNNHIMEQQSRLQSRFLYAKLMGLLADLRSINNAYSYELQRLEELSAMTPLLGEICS

[2] = target: T4, human RXRα ligand binding domain (Homo sapiens, UniProt P19793); experiment: Gal-L-RXR Gal4 reporter transient transfection assay in CV-1 cells; type: cell-based
T4 construct: expressed in transfected cells; host or cells: CV-1
T4 sequence (P19793 203-462): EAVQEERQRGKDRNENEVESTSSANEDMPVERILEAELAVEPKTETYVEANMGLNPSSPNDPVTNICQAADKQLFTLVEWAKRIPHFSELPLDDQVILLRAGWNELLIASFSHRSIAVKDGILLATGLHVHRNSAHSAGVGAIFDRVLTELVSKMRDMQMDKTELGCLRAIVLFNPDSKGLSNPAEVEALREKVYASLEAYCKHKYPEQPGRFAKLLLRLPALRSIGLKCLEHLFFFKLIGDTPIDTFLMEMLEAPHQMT
Source text: as §1

human RARα = target: T5, human RARα (Homo sapiens, UniProt P10276); experiment: Nuclear receptor specificity transfection assay; type: cell-based; settings: 3 μM ritonavir
T5 construct: expressed in transfected cells; host or cells: CV-1

mouse PPARα = target: T6, mouse PPARα (Mus musculus, UniProt P23204); experiment: Nuclear receptor specificity transfection assay; type: cell-based
T6 construct: expressed in transfected cells; host or cells: CV-1
T6 sequence (P23204 1-468): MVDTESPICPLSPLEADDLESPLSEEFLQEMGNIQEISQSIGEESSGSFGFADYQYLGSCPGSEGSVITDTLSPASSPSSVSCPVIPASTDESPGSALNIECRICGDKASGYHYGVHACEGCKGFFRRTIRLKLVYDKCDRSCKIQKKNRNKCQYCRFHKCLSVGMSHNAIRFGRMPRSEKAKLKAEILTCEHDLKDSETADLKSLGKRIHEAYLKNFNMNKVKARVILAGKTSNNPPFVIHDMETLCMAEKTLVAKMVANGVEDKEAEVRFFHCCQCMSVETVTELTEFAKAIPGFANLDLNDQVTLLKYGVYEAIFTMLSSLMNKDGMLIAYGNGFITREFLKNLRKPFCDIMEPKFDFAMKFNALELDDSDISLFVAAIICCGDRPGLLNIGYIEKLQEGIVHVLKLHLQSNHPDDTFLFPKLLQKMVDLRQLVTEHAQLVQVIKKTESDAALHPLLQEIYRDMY

mouse PPARγ = target: T7, mouse PPARγ (Mus musculus, UniProt P37238); experiment: Nuclear receptor specificity transfection assay; type: cell-based; settings: 3 μM ritonavir
T7 construct: expressed in transfected cells; host or cells: CV-1

mouse PPARδ = target: T8, mouse PPARδ (Mus musculus, UniProt P35396); experiment: Nuclear receptor specificity transfection assay; type: cell-based
T8 construct: expressed in transfected cells; host or cells: CV-1
T8 sequence (P35396 1-440): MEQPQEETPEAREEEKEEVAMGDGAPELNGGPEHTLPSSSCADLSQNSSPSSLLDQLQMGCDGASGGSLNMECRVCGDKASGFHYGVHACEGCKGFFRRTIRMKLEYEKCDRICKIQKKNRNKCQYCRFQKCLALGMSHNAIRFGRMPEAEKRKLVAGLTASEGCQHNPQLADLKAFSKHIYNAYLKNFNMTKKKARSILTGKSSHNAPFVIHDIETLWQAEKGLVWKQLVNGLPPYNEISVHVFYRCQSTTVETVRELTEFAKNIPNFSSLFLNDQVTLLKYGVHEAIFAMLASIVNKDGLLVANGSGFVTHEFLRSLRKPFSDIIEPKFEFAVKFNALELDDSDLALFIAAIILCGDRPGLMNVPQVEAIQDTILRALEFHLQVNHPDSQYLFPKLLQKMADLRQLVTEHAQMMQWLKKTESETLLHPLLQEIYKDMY

FXR = target: T9, FXR (Homo sapiens, UniProt Q96RI1); experiment: Nuclear receptor specificity transfection assay; type: cell-based; settings: 3 μM ritonavir
T9 construct: expressed in transfected cells; host or cells: CV-1

MRP2 mRNA = experiment: Northern analysis of MRP2 expression in primary human hepatocytes; type: cell-based
Protocol: (§3) Northern Blot Analysis—Primary human hepatocytes were obtained from Clonetics (Walkersville, Md.) and cultured according to the vendors instructions. Cells were treated with the indicated compounds for 24 hours and total RNA was isolated using the Trizol reagent.
After 24 hour exposure to the compounds, total RNA was prepared and analyzed by northern analysis using probes for MRP2 and the GAPDH control. […] CV-1 cells were transiently transfected with a Gal4 reporter and a vector expressing Gal4-fused to the ligand binding domain of human SXR (Gal-SXR).
(§4) After 24 hour exposure to the compounds, total RNA was prepared and analyzed by northern analysis using probes for MDR1 and the GAPDH control.

MDR1 mRNA = experiment: Northern analysis of MDR1 expression in human LS180 cells; type: cell-based; settings: 3 μM ritonavir, 24 hour
Protocol: as §2, §3, §4

human ERα = human ERα (Homo sapiens, UniProt P03372); settings: 3 μM ritonavir
[3] = tested on: thyroid hormone receptor β (TRβ); settings: 3 μM ritonavir
[4] = tested on: LS180 human colon cancer cells; experiment: [14C]-paclitaxel efflux from pretreated LS180 cells; type: cell-based; settings: LS180 cells induced 48 hours with 10 μM paclitaxel, 10 μM docetaxel or 100 nM LG268
Protocol: Taxane-induced drug efflux was measured using pretreated LS180 human colon cancer cells. The rate of drug efflux was measured. […] Individual data points are the means of triplicate determinations, error bars represent standard deviation and the lines are lines of regression. The slope of each line (rate of efflux) was compared to the slope obtained in the control (untreated) cells using an analysis of covariance. […] The entire experiment was performed three times with similar results. […] The cells were then incubated in media supplemented with 10 μM [^14C]-paclitaxel (4.9 μCi/umol, Moravek Biochemicals, Brea, Calif.) for 15 minutes. The uptake of ^14C-paclitaxel reached maximum levels at 10-12 minutes (data not shown). After 15 minutes, the cells were then rapidly centrifuged through silicone oil to remove all traces of extracellular radioactivity, resuspended in fresh media, and cell counts determined. At multiple time points over the next 10 minutes, triplicate aliquots of the cell suspension (approx. 1×10^5 cells/aliquot) were again centrifuged through silicon oil and the radioactivity in the cell pellet measured by quench-corrected liquid scintillation counting. The rate of [^14C]-paclitaxel efflux was determined as the slope of the [^14C]-paclitaxel versus time plots using all data. The slope for each inducer was compared to the slope obtained in the control (untreated) cells using an analysis of covariance.

T5 sequence (P10276 whole entry): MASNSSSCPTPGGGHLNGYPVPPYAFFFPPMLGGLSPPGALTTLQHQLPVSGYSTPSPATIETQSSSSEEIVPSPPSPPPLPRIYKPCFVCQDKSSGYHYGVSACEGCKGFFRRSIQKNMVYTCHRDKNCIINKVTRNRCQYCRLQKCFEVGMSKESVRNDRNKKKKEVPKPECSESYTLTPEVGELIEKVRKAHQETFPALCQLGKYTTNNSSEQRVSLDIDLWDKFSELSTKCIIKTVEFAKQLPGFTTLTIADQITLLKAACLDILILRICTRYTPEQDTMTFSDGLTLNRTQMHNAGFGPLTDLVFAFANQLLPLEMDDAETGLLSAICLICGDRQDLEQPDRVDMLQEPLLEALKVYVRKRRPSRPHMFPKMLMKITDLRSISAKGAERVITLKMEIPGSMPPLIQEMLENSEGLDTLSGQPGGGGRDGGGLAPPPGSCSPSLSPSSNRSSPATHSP
T7 sequence (P37238 whole entry): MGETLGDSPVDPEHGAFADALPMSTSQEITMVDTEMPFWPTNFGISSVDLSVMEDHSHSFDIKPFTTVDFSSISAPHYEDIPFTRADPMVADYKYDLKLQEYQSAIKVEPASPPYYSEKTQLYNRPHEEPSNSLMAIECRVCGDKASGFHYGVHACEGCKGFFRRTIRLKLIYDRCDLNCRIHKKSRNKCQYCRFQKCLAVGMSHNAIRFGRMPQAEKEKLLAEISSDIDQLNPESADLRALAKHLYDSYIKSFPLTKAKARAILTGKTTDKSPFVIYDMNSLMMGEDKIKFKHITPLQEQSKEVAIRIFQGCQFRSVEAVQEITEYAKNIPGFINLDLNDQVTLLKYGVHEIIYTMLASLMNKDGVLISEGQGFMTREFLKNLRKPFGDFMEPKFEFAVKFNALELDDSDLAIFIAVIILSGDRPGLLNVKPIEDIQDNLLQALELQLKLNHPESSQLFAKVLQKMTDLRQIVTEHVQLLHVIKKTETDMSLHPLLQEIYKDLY
T9 sequence (Q96RI1 whole entry, species assumed): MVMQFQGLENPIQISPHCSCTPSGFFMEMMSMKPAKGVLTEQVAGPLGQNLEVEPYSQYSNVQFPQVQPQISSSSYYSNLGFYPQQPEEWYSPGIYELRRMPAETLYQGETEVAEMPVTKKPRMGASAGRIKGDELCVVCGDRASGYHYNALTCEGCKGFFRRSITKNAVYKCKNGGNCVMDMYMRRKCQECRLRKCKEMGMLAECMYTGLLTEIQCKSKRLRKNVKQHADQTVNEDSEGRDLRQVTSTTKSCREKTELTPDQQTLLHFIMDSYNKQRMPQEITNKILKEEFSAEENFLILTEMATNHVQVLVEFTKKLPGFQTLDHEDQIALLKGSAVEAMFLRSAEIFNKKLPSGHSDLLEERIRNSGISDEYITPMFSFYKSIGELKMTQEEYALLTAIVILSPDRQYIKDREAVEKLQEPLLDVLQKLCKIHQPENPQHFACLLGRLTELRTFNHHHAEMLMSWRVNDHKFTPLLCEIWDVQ
Chain of human ERα (P03372 whole entry): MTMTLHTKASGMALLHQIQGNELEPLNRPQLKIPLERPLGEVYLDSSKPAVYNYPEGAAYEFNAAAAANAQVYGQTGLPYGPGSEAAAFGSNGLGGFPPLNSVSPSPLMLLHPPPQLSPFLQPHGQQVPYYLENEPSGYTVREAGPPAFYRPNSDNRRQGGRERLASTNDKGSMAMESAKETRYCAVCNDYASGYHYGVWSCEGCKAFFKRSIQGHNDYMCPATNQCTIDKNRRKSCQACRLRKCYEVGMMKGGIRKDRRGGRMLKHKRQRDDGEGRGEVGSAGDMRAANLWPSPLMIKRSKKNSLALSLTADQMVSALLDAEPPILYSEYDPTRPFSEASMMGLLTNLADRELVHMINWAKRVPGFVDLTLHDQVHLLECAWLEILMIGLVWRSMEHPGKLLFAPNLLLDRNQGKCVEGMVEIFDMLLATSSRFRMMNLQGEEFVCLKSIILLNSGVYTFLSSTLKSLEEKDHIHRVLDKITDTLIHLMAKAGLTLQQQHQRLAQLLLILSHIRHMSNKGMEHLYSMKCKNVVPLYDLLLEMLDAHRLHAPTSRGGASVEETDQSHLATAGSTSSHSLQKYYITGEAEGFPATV

CC(=O)O[C@H]1C(=O)[C@@]2(C)[C@H]([C@H](OC(=O)c3ccccc3)[C@]3(O)C[C@H](OC(=O)[C@H](O)[C@@H](NC(=O)c4ccccc4)c4ccc(O)cc4)C(C)=C1C3(C)C)[C@]1(OC(C)=O)CO[C@@H]1C[C@@H]2O [3′-p-hydroxypaclitaxel]
activation of Gal-L-SXR chimeric receptor [1]: No activation

COC(=O)CC[C@@H](C)[C@H]1CC[C@H]2[C@@H]3C[C@H](O)[C@@H]4C[C@H](O)CC[C@]4(C)[C@H]3CC[C@]12C [hyodeoxycholic acid methyl ester]
fold activation by cognate ligand (positive control) (human LXRα; 30 μM): 4.5 fold

CC(=O)O[C@H]1C(=O)[C@@]2(C)[C@H]([C@H](OC(=O)c3ccccc3)[C@]3(O)C[C@H](OC(=O)[C@H](O)[C@@H](NC(=O)c4ccccc4)c4ccccc4)C(C)=C1C3(C)C)[C@]1(OC(C)=O)CO[C@@H]1[C@@H](O)[C@@H]2O [6α-hydroxypaclitaxel]
activation of Gal-L-SXR chimeric receptor [1]: No activation

C[C@@]12CCC[C@H]1[C@@H]1CC[C@H]3C[C@@H](O)CC[C@]3(C)[C@H]1CC2 [androstanol]
fold repression by cognate ligand (positive control) (mouse CARβ; 5 μM): 50 fold
effect on transcriptional activity of CARβ (mouse CARβ; LXRE×3-TK-luc reporter, 5 μM androstanol or 50 nM ET-743): inhibited

CC(C)c1nc(CN(C)C(=O)N[C@H](C(=O)N[C@@H](Cc2ccccc2)C[C@H](O)[C@H](Cc2ccccc2)NC(=O)OCc2cncs2)C(C)C)cs1 [ritonavir]
effect on RXRα reporter activity ([2]; 3 μM ritonavir): no effect
activation of Gal-RXR ([2]; ritonavir dose response, same doses as for SXR): failed to activate
effect on retinoic acid receptor α reporter activity (human RARα): no effect
effect on LXRα reporter activity (human LXRα; 3 μM ritonavir): no effect
effect on PPARα reporter activity (mouse PPARα; 3 μM ritonavir): no effect
effect on PPARγ reporter activity (mouse PPARγ): no effect
effect on PPARδ reporter activity (mouse PPARδ; 3 μM ritonavir): no effect
effect on CARβ reporter activity (mouse CARβ; 3 μM ritonavir): no effect
effect on FXR reporter activity (FXR): no effect
MRP2 mRNA expression (MRP2 mRNA; primary human hepatocytes, 3 μM ritonavir, 24 hour): activated expression
MDR1 mRNA expression (MDR1 mRNA): strongly induced
effect on estrogen receptor α reporter activity (human ERα): no effect
effect on thyroid hormone receptor β reporter activity [3]: no effect

Cc1cc2c(cc1C1(c3ccc(C(=O)O)cn3)CC1)C(C)(C)CCC2(C)C [LG268]
rate of [14C]-paclitaxel efflux versus untreated cells [4]: did not differ from controls

hyperforin
MRP2 mRNA expression (MRP2 mRNA): induced expression

CCCCC[C@H](O)/C=C/[C@@H]1[C@H]2C/C(=C/CCCC(=O)O)C[C@H]2C[C@H]1O [arbaprostacyclin]
fold activation by cognate ligand (positive control) (mouse PPARδ; 1 μM): 14 fold

Cc1cccc(Nc2cc(Cl)nc(SCC(=O)O)n2)c1C [Wy 14,643]
fold activation by cognate ligand (positive control) (mouse PPARα; 5 μM): 13 fold
